# Laboratory results reported in patent publication US20240025906A1 (NEURON23, INC., priority 2022, published 2024).
# Columns and labels:
# [1] = target: T1, TYK2 JH2 (Homo sapiens, UniProt P29597); assay: TYK2 JH2 binding assay (KINOMEscan KdELECT competitive binding); conditions: TYK2 JH2 domain, KINOMEscan KdELECT (Assay A); read-out: Biochemical TYK2_DiscoverX_JH2_BND_Kd
# T1 construct: purchased DiscoverX (KINOMEscan KdELECT service); host or cells: E. coli BL21-derived (T7 phage display) or HEK-293
# T1 sequence (P29597 589-875 limits assumed): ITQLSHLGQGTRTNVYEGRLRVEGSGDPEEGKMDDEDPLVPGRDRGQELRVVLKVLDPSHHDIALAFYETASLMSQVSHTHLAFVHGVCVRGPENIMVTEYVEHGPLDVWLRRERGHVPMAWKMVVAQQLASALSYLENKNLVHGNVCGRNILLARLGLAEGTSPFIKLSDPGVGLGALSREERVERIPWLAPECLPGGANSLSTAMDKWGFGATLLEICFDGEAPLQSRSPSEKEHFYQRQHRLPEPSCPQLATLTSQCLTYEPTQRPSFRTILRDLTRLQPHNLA
# Procedure, shortened: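 Test compounds were titrated in 11 three-fold steps against JH2 fragment captured on ligand-loaded magnetic beads, with 1 h incubation at room temperature and DMSO at 0.9%. Eluted kinase was quantified by qPCR, and Kd was fitted from the dose series.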
# [2] = tested on: JAK1/TYK2 pSTAT5 (Tyr694/699) in THP-1 cell line; assay: IFNa-stimulated JAK1/TYK2 pSTAT5 (Tyr694/699) inhibition cellular assay, AlphaLISA; format: cell-based; conditions: Homo sapiens; THP-1 cells, IFNa-stimulated, AlphaLISA (Assay B); read-out: Cellular_THP1_IFNa-pSTATS_TYK2
# Procedure, shortened: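 An eight-point 6-fold titration of compound (0.04–10000 nM final) is given to THP-1 cells for 1 h before 30 min of IFNa exposure. Phospho-STAT5 is read by AlphaLISA at 615 nm. IC50 values are derived by logistic regression with bottom set to 0 and Hill slope set to −1.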
Kd [1] [nM],IC50 [2] [nM],Compound
≤ 100,≤ 500,"CNc1ncc(C#Cc2ccc(OC(F)F)cn2)c2cc(NC(=O)C3CC3)ncc12 [Example 645, N-(5-((5-(difluoromethoxy)pyridin-2-yl)ethynyl)-8-(methylamino)-2,7-naphthyridin-3-yl)cyclopropanecarboxamide]"
≤ 100,≤ 500,"CNc1ncc(C#Cc2ccncc2C(F)(F)F)c2cc(NC(=O)C3CC3)ncc12 [Example 646, N-(8-(methylamino)-5-((3-(trifluoromethyl)pyridin-4-yl)ethynyl)-2,7-naphthyridin-3-yl)cyclopropanecarboxamide]"
≤ 100,≤ 500,"CNc1ncc(C#Cc2ccc3nc(C)n(C)c3c2)c2cc(NC(=O)C3CC3)ncc12 [Example 647, N-(5-((1,2-dimethyl-1H-benzo[d]imidazol-6-yl)ethynyl)-8-(methylamino)-2,7-naphthyridin-3-yl)cyclopropanecarboxamide]"
≤ 100,≤ 500,"CNc1ncc(C#Cc2ccc(COC)cc2)c2cc(NC(=O)C3CC3)ncc12 [Example 648, N-(5-((4-(methoxymethyl)phenyl)ethynyl)-8-(methylamino)-2,7-naphthyridin-3-yl)cyclopropanecarboxamide]"
≤ 100,≤ 500,"CNc1ncc(C#Cc2ccc3c(cnn3C)c2)c2cc(NC(=O)C3CC3)ncc12 [Example 649, N-(5-((1-methyl-1H-indazol-5-yl)ethynyl)-8-(methylamino)-2,7-naphthyridin-3-yl)cyclopropanecarboxamide]"
≤ 100,≤ 500,"CNc1ncc(C#Cc2ccc(SC)cc2)c2cc(NC(=O)C3CC3)ncc12 [Example 650, N-(8-(methylamino)-5-((4-(methylthio)phenyl)ethynyl)-2,7-naphthyridin-3-yl)cyclopropanecarboxamide]"
≤ 100,≤ 500,"CNc1ccc(C#Cc2cnc(NC)c3cnc(NC(=O)C4CC4)cc23)cc1 [Example 651, N-(8-(methylamino)-5-((4-(methylamino)phenyl)ethynyl)-2,7-naphthyridin-3-yl)cyclopropanecarboxamide]"
≤ 100,≤ 500,"CNc1ncc(C#Cc2ccccc2C(C)(C)O)c2cc(NC(=O)C3CC3)ncc12 [Example 652, N-(5-((2-(2-hydroxypropan-2-yl)phenyl)ethynyl)-8-(methylamino)-2,7-naphthyridin-3-yl)cyclopropanecarboxamide]"
≤ 100,≤ 500,"CNc1ncc(C#Cc2cnn(C)n2)c2cc(NC(=O)C3CC3)ncc12 [Example 653, N-(5-((2-methyl-2H-1,2,3-triazol-4-yl)ethynyl)-8-(methylamino)-2,7-naphthyridin-3-yl)cyclopropanecarboxamide]"
≤ 100,≤ 500,"CNc1ncc(C#Cc2ccc(OC(F)F)cc2)c2cc(NC(=O)C3CC3)ncc12 [Example 654, N-(5-((4-(difluoromethoxy)phenyl)ethynyl)-8-(methylamino)-2,7-naphthyridin-3-yl)cyclopropanecarboxamide]"
≤ 100,≤ 500,CNc1ncc(C#Cc2ccc(C(C)(F)F)cc2)c2cc(NC(=O)C3CC3)ncc12 [Example 655]
≤ 100,≤ 500,"CNc1ncc(C#Cc2ccc(OCF)cc2)c2cc(NC(=O)C3CC3)ncc12 [Example 656, N-(5-((4-(fluoromethoxy)phenyl)ethynyl)-8-(methylamino)-2,7-naphthyridin-3-yl)cyclopropanecarboxamide]"
≤ 100,≤ 500,"CNc1ncc(C#Cc2ccc(C(F)(F)F)cn2)c2cc(NC(=O)C3CC3)ncc12 [Example 657, N-(8-(methylamino)-5-((5-(trifluoromethyl)pyridin-2-yl)ethynyl)-2,7-naphthyridin-3-yl)cyclopropanecarboxamide]"
≤ 100,≤ 500,CNc1ncc(C#Cc2ccc(C(F)F)cn2)c2cc(NC(=O)C3CC3)ncc12 [Example 658]
≤ 100,≤ 500,"CNc1ncc(C#Cc2ccc(C)cn2)c2cc(NC(=O)C3CC3)ncc12 [Example 659, N-(8-(methylamino)-5-((5-methylpyridin-2-yl)ethynyl)-2,7-naphthyridin-3-yl)cyclopropanecarboxamide]"
≤ 100,≤ 500,"CNc1ncc(C#Cc2ccc(CC(F)(F)F)cn2)c2cc(NC(=O)C3CC3)ncc12 [Example 660, N-(8-(methylamino)-5-((5-(2,2,2-trifluoroethyl)pyridin-2-yl)ethynyl)-2,7-naphthyridin-3-yl)cyclopropanecarboxamide]"

Kd [1] [nM],IC50 [2] [nM],Compound
≤ 100,≤ 500,"CNc1ncc(C#Cc2ccc(C#N)cn2)c2cc(NC(=O)C3CC3)ncc12 [Example 661, N-(5-((5-cyanopyridin-2-yl)ethynyl)-8-(methylamino)-2,7-naphthyridin-3-yl)cyclopropanecarboxamide]"
≤ 100,≤ 500,"CNc1ncc(C#Cc2ccc(C(C)(C)O)cn2)c2cc(NC(=O)C3CC3)ncc12 [Example 662, N-(5-((5-(2-hydroxypropan-2-yl)pyridin-2-yl)ethynyl)-8-(methylamino)-2,7-naphthyridin-3-yl)cyclopropanecarboxamide]"
≤ 100,≤ 500,"CNc1ncc(C#Cc2cc(C)c(OC)cn2)c2cc(NC(=O)C3CC3)ncc12 [Example 663, N-(5-((5-methoxy-4-methylpyridin-2-yl)ethynyl)-8-(methylamino)-2,7-naphthyridin-3-yl)cyclopropanecarboxamide]"
≤ 100,≤ 500,"CNc1ncc(C#Cc2ncc(OC)cc2C)c2cc(NC(=O)C3CC3)ncc12 [Example 664, N-(5-((5-methoxy-3-methylpyridin-2-yl)ethynyl)-8-(methylamino)-2,7-naphthyridin-3-yl)cyclopropanecarboxamide]"
≤ 100,≤ 500,"CNc1ncc(C#Cc2ncc(OC)cc2F)c2cc(NC(=O)C3CC3)ncc12 [Example 665, N-(5-((3-fluoro-5-methoxypyridin-2-yl)ethynyl)-8-(methylamino)-2,7-naphthyridin-3-yl)cyclopropanecarboxamide]"
≤ 100,≤ 500,"CNc1ncc(C#Cc2ccc3occc3n2)c2cc(NC(=O)C3CC3)ncc12 [Example 666, N-(5-(furo[3,2-b]pyridin-5-ylethynyl)-8-(methylamino)-2,7-naphthyridin-3-yl)cyclopropanecarboxamide]"
≤ 100,≤ 500,"CNc1ncc(C#Cc2cc3ccoc3cn2)c2cc(NC(=O)C3CC3)ncc12 [Example 667, N-(5-(furo[2,3-c]pyridin-5-ylethynyl)-8-(methylamino)-2,7-naphthyridin-3-yl)cyclopropanecarboxamide]"
≤ 100,≤ 500,"CNc1ncc(C#Cc2ccc3nc(CO)sc3c2)c2cc(NC(=O)C3CC3)ncc12 [Example 668, N-(5-((2-(hydroxymethyl)benzo[d]thiazol-6-yl)ethynyl)-8-(methylamino)-2,7-naphthyridin-3-yl)cyclopropanecarboxamide]"
≤ 100,≤ 500,"CNc1ncc(C#Cc2ccncc2CO)c2cc(NC(=O)C3CC3)ncc12 [Example 669, N-(5-((3-(hydroxymethyl)pyridin-4-yl)ethynyl)-8-(methylamino)-2,7-naphthyridin-3-yl)cyclopropanecarboxamide]"
≤ 100,≤ 500,"CNc1ncc(C#Cc2ccc(NC(C)=O)cc2)c2cc(NC(=O)C3CC3)ncc12 [Example 670, N-(5-((4-acetamidophenyl)ethynyl)-8-(methylamino)-2,7-naphthyridin-3-yl)cyclopropanecarboxamide]"
≤ 100,≤ 500,"CNc1ncc(C#Cc2ccc(-n3ccccc3=O)cc2)c2cc(NC(=O)C3CC3)ncc12 [Example 671, N-(8-(methylamino)-5-((4-(2-oxopyridin-1(2H)-yl)phenyl)ethynyl)-2,7-naphthyridin-3-yl)cyclopropanecarboxamide]"
≤ 100,≤ 500,"CNC(=O)c1ccc(C#Cc2cnc(NC)c3cnc(NC(=O)C4CC4)cc23)cc1 [Example 672, 4-((6-(cyclopropanecarboxamido)-1-(methylamino)-2,7-naphthyridin-4-yl)ethynyl)-N-methylbenzamide]"
≤ 100,≤ 500,"CNc1ncc(C#Cc2ccc(S(=O)(=O)NC)cc2)c2cc(NC(=O)C3CC3)ncc12 [Example 673, N-(8-(methylamino)-5-((4-(N-methylsulfamoyl)phenyl)ethynyl)-2,7-naphthyridin-3-yl)cyclopropanecarboxamide]"
≤ 100,≤ 500,"CNc1ncc(C#Cc2ccc(N3CCCC3=O)cc2)c2cc(NC(=O)C3CC3)ncc12 [Example 674, N-(8-(methylamino)-5-((4-(2-oxopyrrolidin-1-yl)phenyl)ethynyl)-2,7-naphthyridin-3-yl)cyclopropanecarboxamide]"
≤ 100,≤ 500,"CNc1ncc(C#Cc2ccc(N3CCOC3=O)cc2)c2cc(NC(=O)C3CC3)ncc12 [Example 675, N-(8-(methylamino)-5-((4-(2-oxooxazolidin-3-yl)phenyl)ethynyl)-2,7-naphthyridin-3-yl)cyclopropanecarboxamide]"
